MIC data for three molecules are collected here from patent US6727232B2, “Nucleoside peptide antibiotics of AA-896” (Wyeth Holdings Corporation, priority 2001, dated 2004).

What all share (assay): Broth dilution MIC
Assay type in all cases: cell-based
(In broth dilution the organism is exposed to a series of concentrations in liquid medium.)

For one test, the system named is CNS GC 4537. The following applies: CNS GC 4537; Mueller-Hinton broth, 18 hours at 35° C.; read-out: Antimicrobial Activity (MIC). The method, then: (§1) The in vitro antibacterial activity of Example 1 through Example 20 is determined against a spectrum of Gram-positive and Gram-negative bacteria by a standard broth dilution method. Serial dilution of the compounds are made in Mueller-Hinton broth and inoculated with a bacterial suspension. The lowest concentration of compound that inhibited the growth of a bacterial strain after 18 hours of incubation at 35° C. is reported as the minimal inhibitory concentration (MIC) for that strain.

The subject of a further test is E. coli GC 3226. The following applies: Escherichia coli, GC3226; E. coli GC 3226; Mueller-Hinton broth, 18 hours at 35° C.; read-out: Antimicrobial Activity (MIC). The method, then: as §1
Another test concerns E. faecalis GC 2242. The following applies: Enterococcus faecalis, GC2242; E. faecalis GC 2242; Mueller-Hinton broth, 18 hours at 35° C.; read-out: Antimicrobial Activity (MIC). The method, then:
as §1

The next test concerns E. coli GC 4559. The following applies: Escherichia coli, GC4559; E. coli GC 4559; Mueller-Hinton broth, 18 hours at 35° C.; read-out: Antimicrobial Activity (MIC). As to the method: as §1
Another test concerns M. morganii GC 4531. The following applies: Morganella morganii, GC4531; M. morganii GC 4531; Mueller-Hinton broth, 18 hours at 35° C.; read-out: Antimicrobial Activity (MIC). The method, then: as §1
For a further test, the system named is S. marcescens GC 4077. The following applies: Serratia marcescens, GC4077; S. marcescens GC 4077; Mueller-Hinton broth, 18 hours at 35° C.; read-out: Antimicrobial Activity (MIC). As to the method:
as §1

A further test relates to CNS GC 4547. The following applies: CNS GC 4547; Mueller-Hinton broth, 18 hours at 35° C.; read-out: Antimicrobial Activity (MIC). As to the method:
as §1

Another test relates to P. rettgeri GC 4530. The following applies: Providencia rettgeri, GC4530; P. rettgeri GC 4530; Mueller-Hinton broth, 18 hours at 35° C.; read-out: Antimicrobial Activity (MIC). The method, then:
as §1

The subject of a further test is S. aureus GC 4536. The following applies: Staphylococcus aureus, GC4536; S. aureus GC 4536; Mueller-Hinton broth, 18 hours at 35° C.; read-out: Antimicrobial Activity (MIC). As to the method:
as §1

For the next test, the system named is S. aureus GC 2216. The following applies: Staphylococcus aureus, GC2216; S. aureus GC 2216; Mueller-Hinton broth, 18 hours at 35° C.; read-out: Antimicrobial Activity (MIC). The method, then: as §1
The next test relates to E. coli GC 4560. The following applies: Escherichia coli, GC4560, 18 h, read-out: Antimicrobial Activity (MIC). As to the method:
as §1

The subject of another test is E. faecalis GC 842. The following applies: Enterococcus faecalis, GC842; E. faecalis GC 842; Mueller-Hinton broth, 18 hours at 35° C.; read-out: Antimicrobial Activity (MIC). As to the method: as §1
The test system of the next test is CNS GC 4538. The following applies: CNS GC 4538; Mueller-Hinton broth, 18 hours at 35° C.; read-out: Antimicrobial Activity (MIC). As to the method:
as §1

Another test deals with E. coli GC 2203. The following applies: Escherichia coli, GC2203; E. coli GC 2203; Mueller-Hinton broth, 18 hours at 35° C.; read-out: Antimicrobial Activity (MIC). The method, then:
as §1

The next test concerns S. aureus GC 1131. The following applies: Staphylococcus aureus, GC1131; S. aureus GC 1131; Mueller-Hinton broth, 18 hours at 35° C.; read-out: Antimicrobial Activity (MIC). As to the method: as §1
The next test deals with E. faecalis GC 4555. The following applies: Enterococcus faecalis, GC4555; E. faecalis GC 4555; Mueller-Hinton broth, 18 hours at 35° C.; read-out: Antimicrobial Activity (MIC). The method, then:
as §1

In a further test the test system is P. aeruginosa GC 2214. The following applies: Pseudomonas aeruginosa, GC2214; P. aeruginosa GC 2214; Mueller-Hinton broth, 18 hours at 35° C.; read-out: Antimicrobial Activity (MIC). The method, then: as §1
The next test concerns K. pneumoniae GC 4534. The following applies: Klebsiella pneumoniae, GC4534; K. pneumoniae GC 4534; Mueller-Hinton broth, 18 hours at 35° C.; read-out: Antimicrobial Activity (MIC). As to the method: as §1
The test system of a further test is E. cloacae GC 3783. The following applies: Enterobacter cloacae, GC3783; E. cloacae GC 3783; Mueller-Hinton broth, 18 hours at 35° C.; read-out: Antimicrobial Activity (MIC). As to the method: as §1
The test system of another test is P. aeruginosa GC 4532. The following applies: Pseudomonas aeruginosa, GC4532; P. aeruginosa GC 4532; Mueller-Hinton broth, 18 hours at 35° C.; read-out: Antimicrobial Activity (MIC). The method, then:
as §1

Converted amounts (≈) assume the structure as drawn.

`CCCCCNC[C@H]1OC(O[C@H](C(C(=O)O)N(CCCCC)CCCNC(=O)C(NC(=O)C(NC(=O)NC(C(=O)O)C(C)C)C2CCNC(=N)N2)C(O)C(C)C)[C@H]2O[C@@H](n3ccc(=O)[nH]c3=O)[C@H](O)[C@@H]2O)[C@H](OC)[C@H]1O` (stereo partly drawn) [Example 17, 16-[(R)-{(2S,3S,4R,5R)-5-[2,4-Dioxo-3,4-dihydro-1 (2H)-pyrimidinyl]-3,4-dihydroxytetrahydro-2-furanyl}({(3R,4S,5R)-4-hydroxy-3-methoxy-5-[(pentylamino)methyl]tetrahydro-2-furanyl}oxy)methyl]-9-(1-hydroxy-2-methylpropyl)-6-(2-iminohexahydro-4-pyrimidinyl)-2-isopropyl-4,7,10-trioxo-15-pentyl-3,5,8,11,15-pentaazaheptadecane-1,17-dioic Acid]: the MIC with CNS GC 4537 is over 32 µg/mL; in the test with E. coli GC 3226 it was over 32 µg/mL; in the test on E. faecalis GC 2242 it was 32 µg/mL (≈ 29.5 µM); in the test with E. coli GC 4559, over 32 µg/mL; in the test on M. morganii GC 4531, over 32 µg/mL; in the test on S. marcescens GC 4077, over 32 µg/mL. In addition, the MIC was 32 µg/mL (≈ 29.5 µM) in the test with CNS GC 4547; over 32 µg/mL in the test on P. rettgeri GC 4530; over 32 µg/mL with S. aureus GC 4536; over 32 µg/mL in the test on S. aureus GC 2216; 32 µg/mL (≈ 29.5 µM) in the test with E. coli GC 4560; over 32 µg/mL in the test with E. faecalis GC 842. Besides, the MIC with CNS GC 4538, in the test with E. coli GC 2203, in the test on S. aureus GC 1131, with E. faecalis GC 4555, in the test on P. aeruginosa GC 2214 and with K. pneumoniae GC 4534 was over 32 µg/mL in each case. The MIC with E. cloacae GC 3783 and with P. aeruginosa GC 4532 was over 32 µg/mL in each case.
In the case of `CO[C@H]1C(O[C@H](C(C(=O)O)N(CCCNC(=O)C(NC(=O)C(NC(=O)NC(C(=O)O)C(C)C)C2CCNC(=N)N2)C(O)C(C)C)Cc2ccc(-c3ccccc3)cc2)[C@H]2O[C@@H](n3ccc(=O)[nH]c3=O)[C@H](O)[C@@H]2O)O[C@H](CNCc2ccc(-c3ccccc3)cc2)[C@@H]1O` (stereo partly drawn) [Example 19B, 15-([1,1′-Biphenyl]-4-ylmethyl)-16-((R)-[((3R,4S,5R)-5-{[([1,1′-biphenyl]-4-ylmethyl)amino]methyl}-4-hydroxy-3-methoxytetrahydro-2-furanyl)oxy]{(2S,3S,4R,5R)-5-[2,4-dioxo-3,4-dihydro-1 (2H)-pyrimidinyl]-3,4-dihydroxytetrahydro-2-furanyl}methyl)-9-(1-hydroxy-2-methylpropyl)-6-(2-iminohexahydro-4-pyrimidinyl)-2-isopropyl-4,7,10-trioxo-3,5,8,11,15-pentaazaheptadecane-1,17-dioic Acid], the MIC with CNS GC 4537, in the test with E. coli GC 3226, in the test on E. faecalis GC 2242, in the test with E. coli GC 4559, in the test on M. morganii GC 4531 and in the test on S. marcescens GC 4077 was over 32 µg/mL each time. For the same molecule, the MIC in the test with CNS GC 4547, in the test on P. rettgeri GC 4530, in the test with S. aureus GC 4536, in the test on S. aureus GC 2216, in the test on E. coli GC 4560 and with E. faecalis GC 842 was over 32 µg/mL each time. For the same molecule, the MIC with CNS GC 4538, in the test on E. coli GC 2203, in the test on S. aureus GC 1131, in the test on E. faecalis GC 4555, with P. aeruginosa GC 2214 and in the test on K. pneumoniae GC 4534 was over 32 µg/mL throughout. Further, the MIC with E. cloacae GC 3783 and in the test on P. aeruginosa GC 4532 was over 32 µg/mL each time.
For `CO[C@H]1C(O[C@H](C(NCCCNC(=O)C(NC(=O)C(NC(=O)NC(C(=O)O)C(C)C)C2CCNC(=N)N2)C(O)C(C)C)C(=O)O)[C@H]2O[C@@H](n3ccc(=O)[nH]c3=O)[C@H](O)[C@@H]2O)O[C@H](CNCc2ccc(-c3ccccc3)cc2)[C@@H]1O` (stereo partly drawn) [Example 19A, 16-((R)-[((3R,4S,5R)-5-{[([1,1′-Biphenyl]-4-ylmethyl)amino]methyl}-4-hydroxy-3-methoxytetrahydro-2-furanyl)oxy]{(2S,3S,4R,5R)-5-[2,4-dioxo-3,4-dihydro-1 (2H)-pyrimidinyl]-3,4-dihydroxytetrahydro-2-furanyl}methyl)-9-(1-hydroxy-2-methylpropyl)-6-(2-iminohexahydro-4-pyrimidinyl)-2-isopropyl-4,7,10-trioxo-3,5,8,11,15-pentaazaheptadecane-1,17-dioic Acid], the MIC in the test on CNS GC 4537, in the test on E. coli GC 3226, in the test with E. faecalis GC 2242, with E. coli GC 4559, in the test with M. morganii GC 4531 and in the test on S. marcescens GC 4077 was over 32 µg/mL throughout. The MIC in the test on CNS GC 4547 is over 32 µg/mL; with P. rettgeri GC 4530 it was over 32 µg/mL; in the test with S. aureus GC 4536, over 32 µg/mL; with S. aureus GC 2216 it was over 32 µg/mL; in the test on E. coli GC 4560, 16 µg/mL (≈ 14.4 µM); with E. faecalis GC 842, over 32 µg/mL. Moreover, the MIC with CNS GC 4538, in the test on E. coli GC 2203, in the test on S. aureus GC 1131, in the test with E. faecalis GC 4555, in the test with P. aeruginosa GC 2214 and in the test on K. pneumoniae GC 4534 was over 32 µg/mL each time. Further, the MIC in the test on E. cloacae GC 3783 and in the test on P. aeruginosa GC 4532 was over 32 µg/mL in each case.

The term MIC denotes the least concentration at which growth counts as inhibited.
